# Test results reported in US20250025442A1, “BCAA-Lowering Compounds for Prevention and/or Treatment of Alzheimer's Disease and Related Disorders” (Texas Tech University System, priority 2020, published 2025).
# What was measured:
# 5xFAD mice = assay: BT2 daily ip injection for one month in 5xFAD mice; type: in vivo
# Source text: These transgenic mice develop amyloid plaques and neuroinflammation at as early as 1.5-2 months of age^7, thus allowing the inventors to investigate the role of BCAAs in AD-related brain pathology when they are young. […] Next, the inventors examined amyloid and Tau pathology in the cortex.
# BCKDH kinase = details: cited from earlier work
# plasma BCAAs = details: mice; cited from earlier work
# [1] = CD-1 mice, in vivo pharmacokinetics study; cited from earlier work
# [2] = in hepatocytes; cited from earlier work
Compound,"increase of tyrosine hydroxylase (TH) protein level (5xFAD mice; 5xFAD mice, p=0.07) [%]",blood glucose (5xFAD mice; BT2-treated vs vehicle-treated 5xFAD mice),"Aβ-42 level (5xFAD mice; cortex, 5xFAD mice)","elevated Aβ-degrading enzyme IDE (5xFAD mice; cortex, 5xFAD mice) [%]","increase of DA (5xFAD mice; cortex, BT2-treated 5xFAD mice) [%]","increase of DOPAC (5xFAD mice; cortex, BT2-treated 5xFAD mice) [%]","GSK3β (5xFAD mice; cortex, after BT2 treatment)","BACE1 (β-secretase) (5xFAD mice; hippocampus, 5xFAD mice)","NE level (5xFAD mice; hippocampus, 5xFAD mice)","mRNA of NF-κB (inflammation) (5xFAD mice; hippocampus, 5xFAD mice)","mRNA of PERK (ER stress) (5xFAD mice; hippocampus, 5xFAD mice)","higher 5-HT (5xFAD mice; hippocampus, after BT2 treatment, p<0.05) [%]","higher DA (5xFAD mice; hippocampus, after BT2 treatment, p=0.08) [%]",inhibit BCKDH kinase (BCKDH kinase),plasma BCAAs (plasma BCAAs),clearance rate [1] [mL/min],Half-life [2] [h]
"O=C(O)c1sc2cc(Cl)ccc2c1Cl [BT2, 3,6-dichlorobenzo[b]thiophene-2-carboxylic acid]",~400,markedly decrease,completely rescued,70,180,300,significantly reduced,markedly lowered,fully restored,decreased,decreased,50,40,effectively inhibit,lowering plasma BCAAs,,
(S)-α-chloro-phenylpropionic acid [(S)-CPP],,,,,,,,,,,,,,effectively inhibit,lowering plasma BCAAs,0.113,~7
